Experimental data reported in the METLIN SMRT retention time set (Domingo-Almenara et al. 2019).

Test: gradient 5% acetonitrile 3 min, to 50% in 2 min, to 85% in 15 min, held 3 min, 100 µL/min
Conditions: column: Zorbax Extend-C18 2.1 x 50 mm; eluents: water / acetonitrile, 0.1% formic acid
How it was run: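 Each retention time is based on an adduct peak selected computationally and verified by manual inspection. Measurements used HPLC–quadrupole time-of-flight mass spectrometry in positive and negative ionization mode on mixtures of ~100 pure standards. Chromatography ran on a Zorbax Extend-C18 column (2.1 × 50 mm, 1.8 μm) at 100 μL/min with water and acetonitrile, each containing 0.1% formic acid, and dead and dwell volumes of 40 μL and 900 μL.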
Work on `O=C1CCCc2cc(S(=O)(=O)N3CCC(C(=O)NCc4ccc5c(c4)OCO5)CC3)ccc2N1` yielded an RP-LC retention time of 706 s.
`CN1C(=O)COc2ccc(-c3csc(NC(=O)c4cccc(Br)c4)n3)cc21` gave an RP-LC retention time of 1060 s.
`CCCOC(=O)c1cnc2nc(C)ccc2c1NCc1ccc2c(c1)OCO2` showed an RP-LC retention time of 734 s.
`O=C(C1=CN(c2ccc3c(c2)OCO3)c2cc(Cl)ccc2S1(=O)=O)N1CCCC1` showed an RP-LC retention time of 847 s.
Molecule `CCC(C(=O)Nc1nc2ccccc2[nH]1)n1cnc2ccccc2c1=O` (stereo unspecified) has an RP-LC retention time of 652 s.
`O=C(NCCOc1ccc(F)cc1)C(c1ccccc1)n1cccc1` (stereo unspecified) gave an RP-LC retention time of 927 s.
For `CCOc1ccccc1N1CCN(C(=O)CSc2nccnc2Oc2ccccc2C)CC1`, the RP-LC retention time was 1120 s.
`O=C(NCCn1nc(-c2ccco2)ccc1=O)C1CN(c2nc3c(F)cccc3s2)C1` gave an RP-LC retention time of 680 s.
For `CC(C)n1nnc2ccc(-c3noc(CNC(=O)c4ccccc4)n3)cc21`, the RP-LC retention time was 825 s.
With `Cc1ccc(NC(=O)N2CCC(C(C)C(=O)Nc3cc(F)ccc3F)CC2)cc1` (stereo unspecified) the RP-LC retention time was 653 s.
`CCOc1cc(=O)n2c(c1C(=O)Nc1ccc(Br)cc1)CCCC2` gave an RP-LC retention time of 798 s.
With `C=C(C)CN1CCN(c2cc(C)nc3c(C)c(-c4ccc(Cl)cc4)nn23)CC1` the RP-LC retention time was 693 s.
`CCN1CCCCc2cc(C(=O)NCC(N)=O)sc21` showed an RP-LC retention time of 679 s.
Work on `CCc1ccc(CNC(=O)c2cc3n(n2)CC(C)(C(=O)NC2CCCC2)N(C)C3=O)cc1` (stereo unspecified) yielded an RP-LC retention time of 812 s.
For `CCOCCCN1C(=O)CN(C2CCCCCC2)C(=O)C1c1ccc(OC)cc1` (stereo unspecified), the RP-LC retention time was 902 s.
`COc1cc2c(cc1OC)C(C(=O)NC1CCCCCC1)C(c1cccnc1)N(C)C2=O` (stereo unspecified) gave an RP-LC retention time of 645 s.
Work on `CCOc1cccc(-c2noc(Cn3ncn4nc(-c5ccc(C)cc5C)cc4c3=O)n2)c1` yielded an RP-LC retention time of 1330 s.
Molecule `COc1ccccc1-c1noc(C2CCCN2C(=O)Nc2cccc(C)c2)n1` (stereo unspecified) has an RP-LC retention time of 881 s.
`O=C(CCn1nnc2cc(-c3noc(-c4cccc(F)c4)n3)ccc21)N1CCCC1` showed an RP-LC retention time of 928 s.
Molecule `O=C(CN1C(=O)CC(c2ccccc2)S(=O)(=O)c2ccccc21)Nc1ccc(F)cc1F` (stereo unspecified) has an RP-LC retention time of 906 s.
`Cc1cccc(NC(=O)c2csc(-c3cn(C)c4ncccc34)n2)c1C` gave an RP-LC retention time of 1050 s.
Work on `CC(C)CN1CCN(C(=O)c2cnc(-c3ccccc3)nc2-c2ccncc2)CC1` yielded an RP-LC retention time of 646 s.
Molecule `COC(=O)c1ccc(NC(=O)N2CCCC2c2c(C)noc2C)cc1` (stereo unspecified) has an RP-LC retention time of 751 s.
With `O=C(C1CCCN(c2ncnc3c2nc2n3CCCCC2)C1)N1CCCc2ccccc21` (stereo unspecified) the RP-LC retention time was 888 s.
Work on `Cc1c(CN2CC(F)(F)C[C@H]2COc2ccncc2)cnn1C` yielded an RP-LC retention time of 502 s.
`Cc1ccc2c(Nc3cccc(Cl)c3)c(C(=O)N3CCSCC3)cnc2n1` showed an RP-LC retention time of 654 s.
Molecule `O=C(NCc1cccs1)C1CCN(c2cnc3nccnc3c2)CC1` has an RP-LC retention time of 632 s.
`COc1cc(NC(=O)NCCc2c(C)nn(C)c2C)cc(OC)c1OC` showed an RP-LC retention time of 610 s.
For `Cn1c(=O)c2nc(S(=O)(=O)CCC(=O)Nc3ccc(F)cc3Cl)n(C)c2n(C)c1=O`, the RP-LC retention time was 758 s.
Molecule `CC12CC(NC(=O)N1c1cccc(C(=O)O)c1)c1ccccc1O2` (stereo unspecified) has an RP-LC retention time of 683 s.
In the case of `COCCCn1c(=O)c2ccccc2n(Cc2nc(-c3ccc(OC)cc3OC)no2)c1=O`, the RP-LC retention time is reported as 884 s.
With `COc1cc(C2OC(c3ccc(Br)cc3)=NN2C(C)=O)ccc1OC(C)=O` (stereo unspecified) the RP-LC retention time was 1000 s.
Work on `CCc1nc(-c2csc(S(=O)(=O)N3CCCC(C(=O)Nc4ccc(C)cc4Cl)C3)c2)no1` (stereo unspecified) yielded an RP-LC retention time of 1100 s.
`Cc1cncn(CC(=O)NC2CCCC2)c1=O` showed an RP-LC retention time of 576 s.
Work on `Cc1ccccc1S(=O)(=O)N1CC[C@@H]2CN(c3cnccn3)[C@@H]2C1` yielded an RP-LC retention time of 738 s.
With `COc1ccc(CN2CC[C@]3(CO)CN(Cc4ccccc4)C[C@@H]3C2)c(Cl)c1OC` the RP-LC retention time was 579 s.
`O=C1C2N=NN(Cc3nc(-c4ccccc4)no3)C2C(=O)N1c1ccccc1` (stereo unspecified) gave an RP-LC retention time of 906 s.
`CCOC(=O)C1=C(CN2CCN(Cc3ccccc3)CC2)NC(=O)NC1c1cccc(OC)c1OC` (stereo unspecified) gave an RP-LC retention time of 660 s.
In the case of `Cc1noc2nc(C)n(CC(=O)NCc3cccc(Br)c3)c(=O)c12`, the RP-LC retention time is reported as 805 s.
In the case of `Cc1ccsc1C(=O)N1[C@H]2CC[C@@H]1c1cnc(-c3ccccc3)nc1C2`, the RP-LC retention time is reported as 982 s.
For `Cc1cc(=O)n(CC(=O)N(C)c2ccccc2)c(N2CCCC2)n1`, the RP-LC retention time was 625 s.
In the case of `CCOc1ccc(S(=O)(=O)N2CCC(c3nc(C(=O)N4CCCC4)c(C)o3)CC2)cc1`, the RP-LC retention time is reported as 941 s.
For `COc1ccc(C)cc1NS(=O)(=O)c1cc(-c2c(C)noc2NC(C)=O)ccc1C`, the RP-LC retention time was 804 s.
With `COc1cccc(CN2C[C@@H]3C(=O)N(CCN4CCc5ccccc5C4)C(=O)[C@@H]3C2)c1` the RP-LC retention time was 590 s.
`COc1ccc(NC(=O)Cc2c(C)nn(-c3nc(-c4ccccc4)cs3)c2C)cc1` gave an RP-LC retention time of 1110 s.
With `Nc1nc2ccc(Cl)cc2n2c(-c3ccccc3)nnc12` the RP-LC retention time was 867 s.
Work on `Cc1ccc(CNC(=O)C2(C)CCCN(C(=O)Nc3ccc(C)c(F)c3)C2)cc1` (stereo unspecified) yielded an RP-LC retention time of 857 s.
`COc1ccccc1CN1CC(=O)N(c2cccc(C)c2)[C@@H]2CS(=O)(=O)C[C@@H]21` gave an RP-LC retention time of 819 s.
With `COc1ccc(-c2noc(C3CC(=O)N(c4cccc(Cl)c4)C3)n2)cc1OC` (stereo unspecified) the RP-LC retention time was 934 s.
Molecule `CCCn1c(=O)sc2cc(S(=O)(=O)N3CCC(C(=O)Nc4ccc(F)cc4)CC3)ccc21` has an RP-LC retention time of 979 s.
In the case of `Cc1ccc(C(=O)N2CCC(Nc3ncnc4c3CCC4)C2)s1` (stereo unspecified), the RP-LC retention time is reported as 585 s.
`O=C(CCn1cnc2cc(-c3noc(-c4ccc5c(c4)OCO5)n3)ccc21)N1CCCC1` gave an RP-LC retention time of 727 s.
Molecule `CCS(=O)(=O)N1CCC(C(=O)NCCc2csc(-c3ccccc3)n2)CC1` has an RP-LC retention time of 765 s.
Molecule `CN(Cc1ccccc1)c1ccc(-c2noc(CN3CCC4(CC3)OCCO4)n2)cn1` has an RP-LC retention time of 745 s.
Work on `O=S(=O)(c1ccc2c(c1)CCC2)N1CCCC1c1nc(-c2cccc(Cl)c2)no1` (stereo unspecified) yielded an RP-LC retention time of 1310 s.
Work on `CCc1ccc(C(O)CN2CCN(c3ccccc3)CC2)cc1` (stereo unspecified) yielded an RP-LC retention time of 692 s.
For `CCS(=O)(=O)NCc1ccc2c(c1)CCN2C(=O)c1cccc(C)c1`, the RP-LC retention time was 815 s.
For `O=C1CSc2ccc(S(=O)(=O)N3CCC(C(=O)NC4CCCC4)CC3)cc2N1`, the RP-LC retention time was 746 s.
Molecule `CCN(CC)c1nc(C(=O)NCc2ccncc2)nc2nc(C)cc(C)c12` has an RP-LC retention time of 511 s.
With `Cc1ccc(Cl)cc1NC(=O)Nc1cccc(-c2ccc(N3CCOCC3)nn2)c1` the RP-LC retention time was 753 s.
Work on `O=C(c1cc[nH]c(=O)c1)N1C[C@@H](COCC2CC2)[C@H](c2ccncc2)C1` yielded an RP-LC retention time of 555 s.
Molecule `CCN1CCN(c2cc(C)c3cc(NC(=S)N4CCN(c5ccccc5)CC4)ccc3n2)CC1` has an RP-LC retention time of 603 s.
For `CCOc1ccccc1-c1noc(Cn2c(=O)n(-c3cccc(C)c3)c(=O)c3sccc32)n1`, the RP-LC retention time was 1010 s.
`O=C(Nc1ccc2c(c1)OCO2)C(=O)c1cccn1Cc1ccc(F)cc1` showed an RP-LC retention time of 1050 s.
In the case of `O=C(Nc1cccs1)N1CCC(c2ccccc2)C1` (stereo unspecified), the RP-LC retention time is reported as 810 s.
`CC1Oc2ccccc2OC1C(=O)Nc1cccc(C(F)(F)F)c1` (stereo unspecified) showed an RP-LC retention time of 1050 s.
`CC1(c2nc(C3CC3)no2)CCCN(C(=O)c2n[nH]c3ccccc23)C1` (stereo unspecified) gave an RP-LC retention time of 781 s.
Work on `COc1ccc(OC)c(NC(=O)C(C)Oc2ccc(=O)n(-c3ccc(F)cc3)n2)c1` (stereo unspecified) yielded an RP-LC retention time of 816 s.
Work on `COc1cccc(CNC(=O)c2c(C)sc3ccn(Cc4ccc(F)cc4)c(=O)c23)c1` yielded an RP-LC retention time of 980 s.
`O=C(Cc1ccccc1Cl)NC1CCN(c2cc(-c3ccccc3)[nH]n2)C1` (stereo unspecified) showed an RP-LC retention time of 721 s.
`COCC1CN(C2CCC2)CC12CCN(C(=O)c1sccc1C)CC2` (stereo unspecified) gave an RP-LC retention time of 597 s.
`Cc1cccc(CNC(=O)CN2C(=O)C3CCCCN3c3ccc(S(=O)(=O)N4CCCC4)cc32)c1` (stereo unspecified) gave an RP-LC retention time of 1080 s.
For `O=C(CCNc1c(-c2cccc(F)c2)nc2cnccn12)NCc1cc(F)cc(F)c1`, the RP-LC retention time was 769 s.
`CC1=C(c2cccc(Cl)c2)S(=O)(=O)N=C1N1CCCN(C(=O)c2ccccn2)CC1` showed an RP-LC retention time of 760 s.
For `CC(C)N1C(=O)c2cccnc2Sc2cc(NC(=O)C(C)(C)C)ccc21`, the RP-LC retention time was 828 s.
`CCC(c1cccs1)N1C(=O)[C@H]2CN(S(=O)(=O)c3ccc(Cl)cc3)C[C@H]2C1=O` (stereo partly specified) showed an RP-LC retention time of 1060 s.
In the case of `Cc1cccc(CCNC(=O)C2CCCN(c3ncnc4c3nc3n4CCCCC3)C2)c1` (stereo unspecified), the RP-LC retention time is reported as 819 s.
Molecule `CC(C)CCNC(=O)c1cn2ccccc2n1` has an RP-LC retention time of 656 s.
`Cc1noc(-c2ccnc(-n3cnc(C(=O)N4CCOCC4)c3)c2)n1` gave an RP-LC retention time of 638 s.
`CC(C)CCNC(=O)C1(C)CN(S(=O)(=O)c2ccccc2)CC(=O)N1c1ccc(F)cc1F` (stereo unspecified) gave an RP-LC retention time of 972 s.
Work on `COCCNC(=O)Cc1ccc(NS(=O)(=O)c2ccccc2Cl)cc1` yielded an RP-LC retention time of 676 s.
`Cc1ccc2oc(-c3noc(C(=O)NCCCN4CCCC4)n3)c(C)c2c1` showed an RP-LC retention time of 717 s.
With `Cc1ccc(Nc2cc(N3CCC(C(=O)NCc4ccco4)CC3)ncn2)cc1` the RP-LC retention time was 664 s.
In the case of `Cc1ccc(S(=O)(=O)N2C[C@@H](F)C[C@H]2C(=O)N2CCc3ccccc3C2)cc1C`, the RP-LC retention time is reported as 973 s.
`CN(C(=O)CSc1cc(NCc2ccc(Cl)cc2)ncn1)C1CCCCC1` gave an RP-LC retention time of 956 s.
With `Cc1cc(-c2nnc(-c3ccc(F)cc3)o2)c(C)n1CC(=O)Nc1cccc(F)c1` the RP-LC retention time was 987 s.
